How the values were obtained:
[1] = target: T1, CETP (cholesteryl ester transfer protein) (Homo sapiens, UniProt P11597); test: CETP inhibitory activity, IC50 in buffer; assay type: biochemical
T1 sequence (P11597 18-493): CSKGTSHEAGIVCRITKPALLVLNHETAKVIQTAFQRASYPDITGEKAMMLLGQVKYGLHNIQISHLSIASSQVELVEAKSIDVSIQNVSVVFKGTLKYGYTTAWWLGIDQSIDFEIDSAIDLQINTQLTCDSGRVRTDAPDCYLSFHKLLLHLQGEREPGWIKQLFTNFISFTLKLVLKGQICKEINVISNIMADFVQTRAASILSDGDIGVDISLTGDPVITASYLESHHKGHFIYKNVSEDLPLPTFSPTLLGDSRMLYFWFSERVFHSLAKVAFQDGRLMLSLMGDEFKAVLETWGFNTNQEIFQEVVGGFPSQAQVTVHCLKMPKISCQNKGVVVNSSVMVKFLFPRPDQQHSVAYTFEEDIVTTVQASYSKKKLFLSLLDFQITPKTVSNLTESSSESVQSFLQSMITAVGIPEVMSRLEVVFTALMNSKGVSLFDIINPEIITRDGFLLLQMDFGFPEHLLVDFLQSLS

[2] = target: T1, CETP (cholesteryl ester transfer protein); test: In vitro CETP activity assay in human plasma; assay type: biochemical; set-up: tissue New Drug Development Research Center, Inc; host or cells: human EDTA plasma from healthy men
Source text: (1) Preparation of Human Pro-Apolipoprotein Al (pro-apoAl)
The cDNA of human pro-apoAl (NCBI accession number: NM_000039) is cloned from human liver Quick-Clone™ cDNA (Clontech, Calif.) and inserted to a pET28a vector (Novagen, Germany) for bacterial expression. Expressed protein as a fusion protein with 6×His-tag at N-terminus in BL-21 Gold (DE3) (Strategene, Calif.) is purified using HiTrap Chelating (GE Healthcare, Conn.).
(2) Preparation of Donor Microemulsion
Pro-apoAl containing microemulsion as a donor particle is prepared following previous reports (J. Biol. Chem., 280:14918-22). Glyceryl trioleate (62.5 ng, Sigma, Mo.), 3-sn-phosphatidylcholine (583 ng, Wako Pure Chemical Industries, Japan), and cholesteryl BODIPY® FL C12 (250 ng, Invitrogen, Calif.) are dissolved in 1 mL of chloroform. The solution is evaporated, then residual solvent is removed in vacuum for more than 1 hr. The dried lipid mixture is dissolved in 500 μL of the assay buffer (50 mM Tris-HCl (pH7.4) containing 150 mM NaCl and 2 mM EDTA) and sonicated at 50° C. with a microtip (MICROSON™ ULTRASONIC CELL DISRUPTOR, Misonix, Farmingdale, N.Y.) at output power 006 for 2 min. After sonication, the solution is cooled to 40° C., added to 100 μg of human pro-apoAl, and sonicated at output power 004 for 5 min at 40° C. The solution, BODIPY-CE microemulsion as a donor molecule is stored at 4° C. after filtration through a 0.45 μm PVDF filter.
(3) In Vitro CETP Activity Assay in Human Plasma
Human EDTA plasma samples from healthy men are purchased from New Drug Development Research Center, Inc. Donor solution is prepared by a dilution of donor microemulsion with assay buffer. Human plasma (50 μL), assay buffer (35 μL) and test compound dissolved in dimethylsulfoxide (1 μL) are added to each well of 96 well half area black flat bottom plate. The reaction is started by the addition of donor solution (14 μL) into each well. Fluorescence intensities are measured every 30 min at 37° C. with excitation wave length of 485 nm and emission wavelength of 535 nm. The CETP activity (Fl/min) is defined as the changes of fluorescence intensity from 30 to 90 min.

Compound | IC50 [1] [µM] | IC50 [2] [µM]
CCN(CC1CCCC1)c1nc2cc(OC)ccc2cc1CN(Cc1cc(C(F)(F)F)cc(C(F)(F)F)c1)c1nnn(C)n1 [Example 2-7] | 0.044 | 0.075
CCN(CC1CCCC1)c1nc2cc(F)c(F)c(F)c2cc1CN(Cc1cc(C(F)(F)F)cc(C(F)(F)F)c1)c1nnn(C)n1 [Example 2-10] | 0.036 | 0.037
CCN(CC1CCCC1)c1nc2cc(C)ccc2cc1CN(Cc1cc(C(F)(F)F)cc(C(F)(F)F)c1)c1nnn(C)n1 [Example 2-6] | 0.028 | 0.092
CCN(CC1CCCC1)c1nc2ccccc2cc1CN(Cc1cc(C(F)(F)F)cc(C(F)(F)F)c1)c1nnn(C)n1 [Example 1, N-[(3-{N′-[3,5-bis(trifluoromethyl)benzyl]-N′-(2-methyl-2H-tetrazol-5-yl)amino}methyl)quinolin-2-yl]-N-(cyclopentylmethyl)ethylamine] | 0.16 | 0.26
CCN(CC1CCCCC1)c1nc2cc(F)c(F)cc2cc1CN(Cc1cc(C(F)(F)F)cc(C(F)(F)F)c1)c1nnn(C)n1 [Example 2-15] | 0.043 | 0.062
CCN(CC1CCCCC1)c1nc2cc(F)ccc2cc1CN(Cc1cc(C(F)(F)F)cc(C(F)(F)F)c1)c1nnn(C)n1 [Example 2-13] | 0.032 | 0.082
CCOC(=O)C[C@H]1CC[C@H](CN(CC)c2nc3ccccc3cc2CN(Cc2cc(C(F)(F)F)cc(C(F)(F)F)c2)c2nnn(C)n2)CC1 [Example 2-17] | 0.25 | 0.22
CCN(CC1CCCCC1)c1nc2ccc(F)cc2cc1CN(Cc1cc(C(F)(F)F)cc(C(F)(F)F)c1)c1nnn(C)n1 [Example 2-12] | 0.12 | 0.094
CCN(CC1CCCC1)c1nc2cc(F)c(F)cc2cc1CN(Cc1cc(C(F)(F)F)cc(C(F)(F)F)c1)c1nnn(C)n1 [Example 2-8] | 0.04 | 0.024

Results, then the molecule that gave them:

IC50 [1] [µM] | IC50 [2] [µM] | Compound
0.12 | 0.11 | CCOC[C@H]1CCCN1c1nc2cc(F)ccc2cc1CN(Cc1cc(C(F)(F)F)cc(C(F)(F)F)c1)c1nnn(C)n1 [Example 3-5]
0.054 | 0.039 | CCN(CC1CCCC1)c1nc2cc(C#N)ccc2cc1CN(Cc1cc(C(F)(F)F)cc(C(F)(F)F)c1)c1nnn(C)n1 [Example 6, 3-({N-[3,5-bis(trifluoromethyl)benzyl]-N-(2-methyl-2H-tetrazol-5-yl)amino}methyl)-2-[N′-(cyclopentylmethyl)-N′-ethylamino]quinoline-7-carbonitrile]
0.0058 | 0.033 | CCN(CC1CCCC1)c1nc2cc(F)cc(F)c2cc1CN(Cc1cc(C(F)(F)F)cc(C(F)(F)F)c1)c1ncc(N2CCOCC2)cn1 [Example 13-4]
0.16 | 0.03 | CCN(CC1CCOCC1)c1nc2cc(F)c(F)cc2cc1CN(Cc1cc(C(F)(F)F)cc(C(F)(F)F)c1)c1nnn(C)n1 [Example 2-22]
0.021 | 0.045 | Cn1nnc(N(Cc2cc(C(F)(F)F)cc(C(F)(F)F)c2)Cc2cc3cc(F)c(F)cc3nc2N2CCC[C@@H]2[C@H]2CC[C@H](C(=O)O)CC2)n1 [Example 21, trans-4-{(R)-1-[3-({N-[3,5-bis(trifluoromethyl)benzyl]-N-(2-methyl-2H-tetrazol-5-yl)amino}methyl)-6,7-difluoroquinolin-2-yl]pyrrolidin-2-yl}cyclohexanecarboxylic acid]
0.06 | 0.062 | CCC(CC)[C@H]1CCCN1c1nc2cc(F)c(F)cc2cc1CN(Cc1cc(C(F)(F)F)cc(C(F)(F)F)c1)c1nnn(C)n1 [Example 3-4]
0.039 | 0.043 | Cn1nnc(N(Cc2cc(C(F)(F)F)cc(C(F)(F)F)c2)Cc2cc3ccc(F)cc3nc2N2CCCC2C2CCCCC2)n1 (stereo not shown) [Example 3-2]
0.025 | 0.039 | Cn1nnc(N(Cc2cc(C(F)(F)F)cc(C(F)(F)F)c2)Cc2cc3cc(F)c(F)cc3nc2N2CCC[C@@H]2[C@H]2CC[C@H](CC(=O)O)CC2)n1 [Example 28, trans-(4-{(R)-1-[3-({N-[3,5-bis(trifluoromethyl)benzyl]-N-(2-methyl-2H-tetrazol-5-yl)amino}methyl)-6,7-difluoroquinolin-2-yl]pyrrolidin-2-yl}cyclohexyl)acetic acid]
